Source: paper PMC6470953, “Symmetrical Modification of Minimized Dermaseptins to Extend the Spectrum of Antimicrobials with Endotoxin Neutralization Potency” (International Journal of Molecular Sciences, 2019)
Read-outs that look alike come from different tables or passages of the source. Where no end group is shown, it is not given here.

Columns and labels:
[1] = system: interleukin-6(IL-6); experiment: LPS-induced IL-6 gene expression (qRT-PCR) in RAW264.7; assay type: cell-based, murine; conditions: RAW264.7, 100 ng/mL LPS, peptide 10 μg/mL, n = 3
Protocol: (§1) The RAW264.7 cell culture was prepared using the same method as the cytotoxicity assay. The cells were seeded in 12 wells plates at a given density (5 × 10^5 cells per well); after overnight culture, 100 ng·mL^−1 LPS from E. coli 0111:B4 was added to stimulate the generation of cytokines in the presence or absence of the peptides at concentrations of 10 μg·mL^−1. The mRNA levels of IL-6 and IL-1β were determined by quantitative real-time PCR(qRT-PCR) as previously described. The total RNA was isolated from the RAW264.7 cells using TRIzol according to the manufacturer’s instructions. Total RNA (1 µg) was reverse transcribed by the M-MLV Reverse Transcriptase (Thermo scientific, Waltham, MA, USA). The reactions were incubated in chronological arrangement with the following parameters: at 25 °C for 20 min, at 42 °C for 60 min, and at 70 °C for 10 min. The obtained cDNA samples were determined by qRT-PCR with SYBR green I fluorescence dye (Takara Bio Inc., Kusatsu, Japan). Relative quantifications of the mRNA expression of the target genes were calculated through the comparative threshold cycle number for each sample (2^−ΔΔCT). Gene expression was normalized to the corresponding β-actin level. The primers for qRT-PCR in this study are shown below: IL-6-F: […]; IL-6-R: […]; IL-1β-F: […]; and IL-1β-R: […].

[2] = system: E. coli ATCC 25922; experiment: FACScan membrane integrity analysis (propidium iodide); assay type: cell-based; conditions: E. coli ATCC 25922, 10 μg/mL PI, 4 °C, 30 min, flow cytometry
Protocol: The membrane integrity measurements were performed with a FACScan instrument (Bectone-Dickinson, San Jose, CA, USA) by using a modified method as described previously. […] As a control, bacteria were exposed to PBS without the peptide. The gate (P1) was defined based on the FSC and SSC properties of E. coli. The FSC threshold was appropriately raised to include the large cell events in the sample and excluded the debris population. Data acquisition was performed using […] Software (Becton Dickinson, San Jose, CA, USA) with a stopping gate of 10,000 total events. Observations were repeated three times at a laser excitation wavelength of 488 nm. Based on the ability of flow cytometers to provide accurate quantification of cell numbers, the counts of PI-positive cells were measured for each peptide.

[3] = LPS binding, BODIPY-TR cadaverine displacement assay; set-up: species or system E. coli; conditions: LPS 100 ng/mL, peptide 1.25–40 μg/mL, 1 h, 37 °C, Tris pH 7.4
Protocol: BODIPY-TR-cadaverine fluorescent dye (BC, Sigma, USA) was used to determine the LPS neutralizing activity of the peptides. A total of 100 ng/mL LPS from E. coli O111:B4 was incubated with 5 μg/mL BC in Tris buffer (50 mM, pH 7.4) for 4 h at room temperature. The peptides were serially diluted to different concentrations (1.25–40 μg/mL) in a 96-well plate and incubated with an equal volume of the LPS-probe mixture for 1 h at 37 °C. The fluorescence was recorded (excitation λ = 580 nm, emission λ = 620 nm) with a spectrofluorophotometer (the Infinite 200 pro, Tecan, China). The values were converted to %ΔF (AU) using the following equation:%ΔF (AU) = (Fobs − F0) / (F100 − F0) × 100 where F0 is the initial fluorescence of BC with LPS; F100 is the BC fluorescence with LPS cells upon the addition of 10 μg∙mL^−1 polymyxin B (the positive control); and Fobs is the observed fluorescence at a given peptide concentration.

[4] = system: Gram-negative and Gram-positive bacteria; experiment: Geometric mean of MIC values over the bacteria tested; assay type: cell-based; conditions: MIC >128 μM counted as 256 μM
Protocol: (§2) MIC measurements were performed in 96-well plates. The peptides were dissolved in 0.2% bovine serum albumin and 0.01% acetic acid, and an appropriate broth was subjected to a series of two-fold dilutions. The final concentration of microbial suspensions was from 2 × 10^5 to 7 × 10^5 colony forming units (CFU)∙mL^−1. Key parameters were volume (50 μL bacterial suspension + 50 μL peptide solution), incubating time (18–24 h), and temperature (37 °C). Each test was performed in three replicates on at least two independent occasions. The Mueller Hilton broth (MHB) (AoBoX, Shanghai, China) without or with microbial cells was regarded as the negative control or positive control, respectively. MICs were recorded at the lowest peptide concentration without visible turbidity and spectrophotometrically by measuring the optical density (OD) at 492 nm (Tecan, Salzburg, Austria).

[5] = system: interleukin-1β(IL-1β); experiment: LPS-induced IL-1β gene expression (qRT-PCR) in RAW264.7; assay type: cell-based, murine; conditions: RAW264.7, 100 ng/mL LPS, peptide 10 μg/mL, n = 3
Protocol: as §1

[6] = system: S. epidermidis ATCC 12228; conditions: cited from earlier work
From the text: (§3) Table 2 MICs and therapeutic index of the peptides. | column: KL4A6 [9]

[7] = system: E. coli UB1005; conditions: cited from earlier work
From the text: as §3

[8] = system: S. faecalis ATCC 29212; conditions: cited from earlier work
From the text: as §3

[9] = system: Gram-negative and Gram-positive bacteria; conditions: MIC >128 μM counted as 256 μM; cited from earlier work
From the text: as §3

[10] = system: S. aureus ATCC 29213; conditions: cited from earlier work
From the text: as §3

[11] = system: S. pullorum C79-13; conditions: cited from earlier work
From the text: as §3

[12] = system: human red blood cells (hRBCs); conditions: lowest peptide concentration that induces 5% hemolysis; cited from earlier work
From the text: as §3

[13] = system: P. aeruginosa ATCC 27853; conditions: cited from earlier work
From the text: as §3

[14] = system: E. coli ATCC25922; conditions: cited from earlier work
From the text: as §3

[15] = system: B. subtilis CMCC 63501; conditions: cited from earlier work
From the text: as §3

[16] = system: S. typhimurium ATCC 14028; conditions: cited from earlier work
From the text: as §3

[17] = system: B. subtilis CMCC 63501; experiment: MIC assay, B. subtilis CMCC 63501; assay type: cell-based; conditions: two-fold dilution in 96-well plates, MHB, 2-7 × 10^5 CFU/mL, 18–24 h, 37 °C
Protocol: as §2

[18] = system: S. faecalis ATCC 29212; experiment: MIC assay, S. faecalis ATCC 29212; assay type: cell-based; conditions: two-fold dilution in 96-well plates, MHB, 2-7 × 10^5 CFU/mL, 18–24 h, 37 °C
Protocol: as §2

[19] = system: S. aureus ATCC 29213; experiment: MIC assay, S. aureus ATCC 29213; assay type: cell-based; conditions: two-fold dilution in 96-well plates, MHB, 2-7 × 10^5 CFU/mL, 18–24 h, 37 °C
Protocol: as §2

[20] = system: murine macrophage cell line (RAW264.7); experiment: MTT cytotoxicity assay, RAW264.7; assay type: cell-based; conditions: RAW264.7, peptide 64 μM, 18–24 h, 37 °C, OD 570 nm, n = 3
Protocol: (§4) The Roswell Park Memorial Institute-1640 (RPMI-1640) (Invitrogen, Carlsbad, CA, USA) and Dulbecco’s modified Eagle’s medium-high glucose (DMEM) (Gibco, China) were supplemented with 100 μg∙mL^−1 streptomycin sulfate, 100 U∙mL^−1 penicillin, and 10% (v/v) fetal bovine serum (Hyclone, Logan, UT, USA). These were used to culture the RAW264.7 and HEK293T cells, respectively. The peptides were added to cell cultures (1.0–2.0 × 10^4 cells/well) at different final concentrations (1–64 µM) in 96-well plates for 18–24 h at 37 °C in 5% CO2, and 3-(4,5-dimethylthiazol-2-yl)-2,5-diphenyltetrazolium bromide (MTT) (50 µL, 0.5 mg∙mL^−1) was injected and incubated with cell cultures for 4 h at 37 °C. Finally, the centrifuged cells without the supernatants were mixed with 150 µL of dimethyl sulfoxide to dissolve the formazan crystals that formed. The optical density (OD) was recorded by a microplate reader (Tecan, Salzburg, Austria) at 570 nm.

[21] = system: E. coli ATCC25922; experiment: MIC assay, E. coli ATCC25922; assay type: cell-based; conditions: two-fold dilution in 96-well plates, MHB, 2-7 × 10^5 CFU/mL, 18–24 h, 37 °C, three replicates on at least two occasions
Protocol: as §2

[22] = system: S. epidermidis ATCC 12228; experiment: MIC assay, S. epidermidis ATCC 12228; assay type: cell-based; conditions: two-fold dilution in 96-well plates, MHB, 2-7 × 10^5 CFU/mL, 18–24 h, 37 °C
Protocol: as §2

[23] = system: human embryonic kidney cells (HEK293T); experiment: MTT cytotoxicity assay, HEK293T; assay type: cell-based; conditions: peptide 64 μM, 18–24 h, 37 °C, OD 570 nm, n = 3
Protocol: as §4

[24] = system: S. typhimurium ATCC 14028; experiment: MIC assay, S. typhimurium ATCC 14028; assay type: cell-based; conditions: two-fold dilution in 96-well plates, MHB, 2-7 × 10^5 CFU/mL, 18–24 h, 37 °C
Protocol: as §2

[25] = system: human red blood cells (hRBCs); experiment: Hemolytic activity assay; assay type: cell-based; conditions: lowest peptide concentration that induces 5% hemolysis; hRBCs in PBS pH 7.4, 1 h, 37 °C, OD570
Protocol: Hemolytic activity measurements were performed to evaluate the effect of peptides on hemoglobin release levels by erythrocyte lysis. The experimental protocol was reviewed and approved by the ethics committee of the Northeast Agricultural University Hospital, and the experimental method was carried out in accordance with the approved guidelines and regulations. A total of 1 mL of fresh hRBCs was collected and diluted 10-fold with PBS (pH 7.4). A quantity of 50 μL of the hRBCs solution was incubated with 50 μL of serially diluted peptides dissolved in PBS for 1 h at 37 °C. hRBC suspension treated with 0.1% Triton X-100 was employed as a positive control and an untreated hRBC suspension was used as a negative control. A total of 50 μL of the supernatant was collected from the mixture after centrifugation (1000g, 5 min, 4 °C) and transferred to a new 96-well microplate. The percent hemolysis was calculated using the following equation: Hemolysis (%) = [(OD570 of the treated sample — OD570 of the negative control)/(OD570 of the positive control — OD570 of the negative control)] × 100%.

[26] = system: S. pullorum C79-13; experiment: MIC assay, S. pullorum C79-13; assay type: cell-based; conditions: two-fold dilution in 96-well plates, MHB, 2-7 × 10^5 CFU/mL, 18–24 h, 37 °C
Protocol: as §2

[27] = system: P. aeruginosa ATCC 27853; experiment: MIC assay, P. aeruginosa ATCC 27853; assay type: cell-based; conditions: two-fold dilution in 96-well plates, MHB, 2-7 × 10^5 CFU/mL, 18–24 h, 37 °C
Protocol: as §2

[28] = system: E. coli UB1005; experiment: MIC assay, E. coli UB1005; assay type: cell-based; conditions: two-fold dilution in 96-well plates, MHB, 2-7 × 10^5 CFU/mL, 18–24 h, 37 °C
Protocol: as §2

Compound: CC[C@H](C)[C@H](NC(=O)CN)C(=O)NCC(=O)N[C@@H](C)C(=O)N[C@H](C(=O)N[C@@H](CC(C)C)C(=O)N[C@@H](CCCCN)C(=O)N[C@H](C(=O)N[C@@H](CC(C)C)C(=O)N[C@H](C(=O)N[C@H](C(=O)NCC(=O)N[C@@H](CC(C)C)C(=O)N1CCC[C@H]1C(=O)N[C@@H](C)C(=O)N[C@@H](CC(C)C)C(=O)N[C@H](C(=O)N[C@@H](CO)C(=O)N[C@@H](Cc1c[nH]c2ccccc12)C(=O)N[C@H](C(=O)N[C@@H](CCCCN)C(=O)N[C@@H](CCCNC(=N)N)C(=O)N[C@@H](CCCCN)C(=O)N[C@@H](CCCNC(=N)N)C(=O)N[C@@H](CCC(N)=O)C(=O)N[C@@H](CCC(N)=O)C(N)=O)[C@@H](C)CC)[C@@H](C)CC)[C@@H](C)O)[C@@H](C)O)C(C)C)C(C)C [Melittin]
- gene expression of IL-6 in LPS-treated cells [1]: markedly decreased
- percentage of PI-positive cells ([2]; 1/2 × MIC): 50.5%
- percentage of PI-positive cells ([2]; 1 × MIC): 77.5%
- binding to LPS, %ΔF (AU) of BODIPY-TR cadaverine [3]: concentration-dependent increase
- GM (geometric mean of MIC values) [4]: 1.3 µM
- gene expression of IL-1β in LPS-treated cells [5]: markedly decreased

Compound: LLKAAAKAAAKLL-NH2 [KL4A6]
- MIC [6]: 128 µM
- MIC [7]: 32 µM
- MIC [8]: 16 µM
- GM (geometric mean of MIC values) [9]: 59.3 µM
- MIC [10]: >128 µM
- MIC [11]: >128 µM
- MHC5 (minimum hemolysis concentration 5%) [12]: >256 µM
- MIC [13]: >128 µM
- MIC [14]: 2 µM
- MIC [15]: 32 µM
- MIC [16]: 128 µM

Compound: WFKAAAKAAAKFW-NH2 [WF]
- MIC [17]: 8 µM
- MIC [18]: 32 µM
- MIC [19]: 8 µM
- cell survival rate [20]: 92%
- MIC [21]: 4 µM
- MIC [22]: 16 µM
- cell survival rate [23]: 91%
- MIC [24]: 32 µM
- MHC5 (minimum hemolysis concentration 5%) [25]: 256 µM
- MIC [26]: 8 µM
- MIC [27]: 16 µM
- MIC [28]: 4 µM
